Data published in patent publication US20060234919A1, “Use” (priority 2001, published 2006).

Legend:
[1] = tested on: carrageenan induced edema; experiment: carrageenan induced edema of the rat hindpaw (plethysmometer); type: in vivo; conditions: for carrageenan induced edema, percentage increase in hindpaw volume: 10 mg/kg i.m.
Experimental: Male Sprague-Dawley rats (260-300 g for s.c. injected and 340-380 g for i.c.v. injected) were used (B&K Universal A B, Sollentuna, Sweden). The animals arrived at least one week before experiments and were housed three-four per cage (except animals provided with i.c.v. cannulas that were housed individually) with free access to food (R36, Ewos, Södertälje, Sweden) and water. The light schedule was a 12/12 h light/dark cycle, and ambient temperature was 20±2° C.
Oxytocin and the oxytocin antagonist (1-deamino-2-D-Tyr-(OEt)-4-Thr-8-Orn-oxytocin) (Ferring, Malmö, Sweden) were dissolved in physiological saline and injected in a volume of 1 ml/kg s.c. in the dorsal neck. Dexamethasone (Decadron®, Merck, Sharp & Dome, USA) was administered intramuscularly (i.m.). Oxytocin given i.c.v. was dissolved in a volume of 5 μl physiological saline and slowly injected over a period of 1 minute through the i.c.v. guide cannula via a 25 G stain-less-steel injection needle connected to a 10 μl Hamilton syringe via a polyethylene tube. Controls received saline in the same amounts.
The model of inflammation used, the carrageenan induced edema, is a commonly used model for studies of inflammation and for testing novel anti-inflammatory drugs (Winter C A, Risley E A, Nuss G W. Carrageenan-induced edema in hind paw of the rat as an assay for anti-inflammatory drugs. Proc Soc Exp Biol Med 1962; 111:544-7). To produce acute inflammation, carrageenan, 2 mg in 0.1 ml saline, was injected s.c. into the plantar region of the rat right hindpaw.
The rats were treated s.c. with oxytocin (1.0, 10, 100 or 1000 μg/kg (n=8 in each group) or saline (n=8+8) immediately before the carrageenan injection. The edema of the right hindpaw was measured (volume in ml) using a plethysmometer (Ugo Basile, type 7150, Florence, Italy) before treatment, half an hour after, one hour after, and then every hour up to 6 or 10 hours after treatment.
The results are presented as means±SD. Statistical analysis was performed by means of a 1-way ANOVA, followed by Fisher's test for post-hoc comparisons. In the analysis of myeloperoxidase accumulation, a Student's t-test was used. P-values of 0.05 or less were regarded as statistically significant.
The rats were treated s.c. with oxytocin (1000 μg/kg) and the oxytocin antagonist (1000 μg/kg) (the antagonist was given 30 minutes before oxytocin) (n=8), the oxytocin antagonist alone (1000 μg/kg) (n=8) or saline (n=8) immediately before the carrageenan injection. Measurements as in Example 1.
The rats were treated i.c.v. with oxytocin (1.0 μg/kg) (n=6) or saline (n=7) immediately before the carrageenan injection. Measurements as in Example 1. The animals were anaesthetised with sodiumpentobarbital (50 mg/kg) (Apoteksbolaget, Sweden) injected intraperitoneally (i.p.). The scull was uncovered, a hole was drilled in the right parietal bone and a guide cannula (21 G) was fixed stereotactically to the scull by means of acrylic dental cement. The coordinates were 1.00 mm posterior and 1.30 mm lateral to the bregma. […] The injection needles (25 G) reached 3.80 mm below the dura mater, with the tip of the needle in the right lateral ventricle. The animals were allowed one week of recovery after the operation. At the end of the experiment, the placement of the guide cannula was checked by injection of 2 μl of toluidine blue.
The rats were treated i.m. with dexamethasone (10 mg/kg) (n=6) or saline (n=6) immediately before the carrageenan injection. The edema of the right hindpaw was measured using the plethysmometer before treatment, and at 2, 4 and 6 hours after treatment.

[2] = tested on: ischaemic musculocutaneous skin flaps; conditions: antagonist 1 mg/kg s.c.; previously shown by the inventors; cited from earlier work

| Molecule | abolition of the oxytocin (1000 μg/kg s.c.) induced effect on carrageenan induced edema ([1]; antagonist 1000 μg/kg s.c. 30 minutes before oxytocin) | effect on carrageenan induced edema ([1]; antagonist 1000 μg/kg s.c. administered alone) | antagonism of the oxytocin (1 mg/kg s.c.) effect on skin flap survival [2] | carrageenan induced edema, percentage increase in hindpaw volume ([1]; 2 hours, saline 48±10%, p<0.05) | carrageenan induced edema, percentage increase in hindpaw volume ([1]; 4 hours, saline 78±12%, p<0.05) | carrageenan induced edema, percentage increase in hindpaw volume ([1]; 6 hours, saline 105±11%, p<0.01) |
| --- | --- | --- | --- | --- | --- | --- |
| 1-deamino-2-D-Tyr-(OEt)-4-Thr-8-Orn-oxytocin [oxytocin antagonist] | did not abolish | did not induce any effect | abolished | – | – | – |
| C[C@@H]1C[C@H]2[C@@H]3CCC4=CC(=O)C=C[C@]4(C)[C@@]3(F)[C@@H](O)C[C@]2(C)[C@@]1(O)C(=O)CO [Dexamethasone] | – | – | – | 35±9.3% | 54±14% | 71±15% |
